The values that follow come from US11638716B2, “Compounds, compositions, and methods for the treatment of disease” (F-star Therapeutics, Inc., priority 2017, dated 2023).

The test system of one experiment is ISGs/type I IFN response. The experiment can be described thus: ISGs/type I IFN response in normal Balb/C mice after intravenous dosing. The class given is in vivo, mouse. The note with it: intravenously 9 mg/kg.
The target of another experiment is T1, wt-mSTING (Mus musculus, UniProt Q3TBT3).
T1 construct: endogenous in cells
T1 sequence (Q3TBT3 1-378): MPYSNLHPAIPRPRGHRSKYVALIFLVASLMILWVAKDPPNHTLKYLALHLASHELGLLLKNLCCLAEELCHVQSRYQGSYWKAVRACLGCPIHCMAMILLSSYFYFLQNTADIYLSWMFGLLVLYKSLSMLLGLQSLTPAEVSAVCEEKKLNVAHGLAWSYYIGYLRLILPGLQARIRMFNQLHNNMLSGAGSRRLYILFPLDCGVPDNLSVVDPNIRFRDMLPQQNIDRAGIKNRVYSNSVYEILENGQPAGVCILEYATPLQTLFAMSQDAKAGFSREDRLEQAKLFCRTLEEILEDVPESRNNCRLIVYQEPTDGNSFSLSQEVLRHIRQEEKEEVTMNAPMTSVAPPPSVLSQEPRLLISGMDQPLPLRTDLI
Nature of the experiment: IRF/NF-kB reporter cells, wt-mSTING. The note with it: 20 hours. The class given is cell-based. The protocol: (§1) FIG. 22 depicts cells stably expressing both or either one of the reporters to measure IRF and NF-kB activity were treated with a range of concentrations of compound 2 or DMSO control for 20 hours. IRF activity was assessed using QUANTI-luc to measure levels of Lucia and NF-kB activity was determined by measure SEAP levels at 620-655 nm. % induction was calculated from fold change in luminescence/absorbance compared to DMSO treated sample. EC50 values are generated by curve fit in Xlfit.
(§2) FIG. 24 depicts cells stably expressing both or either one of the reporters to measure IRF and NF-kB activity were treated with a range of concentrations of compound 3 or DMSO control for 20 hours. IRF activity was assessed using QUANTI-luc to measure levels of Lucia and NF-kB activity was determined by measure SEAP levels at 620-655 nm. % induction was calculated from fold change in luminescence/absorbance compared to DMSO treated sample. EC50 values are generated by curve fit in Xlfit.
(§3) FIG. 27 depicts cells stably expressing both or either one of the reporters to measure IRF and NF-kB activity were treated with a range of concentrations of compound 4 or DMSO control for 20 hours. IRF activity was assessed using QUANTI-luc to measure levels of Lucia and NF-kB activity was determined by measure SEAP levels at 620-655 nm. % induction was calculated from fold change in luminescence/absorbance compared to DMSO treated sample. EC50 values are generated by curve fit in Xlfit.
(§4) Cells grown in complete media were treated with various concentrations of a compound of the disclosure or DMSO control. […] After 20 h incubation, IRF activity was assessed using QUANTI-luc to measure levels of Lucia and NF-kB activity was determined by measure SEAP levels at 620-655 nm. % induction was calculated from fold change in luminescence/absorbance compared to DMSO treated sample. […]

For another experiment, the target named is T2, STING CTD (Homo sapiens, UniProt Q86WV6, H232R).
T2 construct: Thermal shift assay was conducted with 0.1 mg/mL of STING CTD
T2 sequence (Q86WV6 135-379 H232R): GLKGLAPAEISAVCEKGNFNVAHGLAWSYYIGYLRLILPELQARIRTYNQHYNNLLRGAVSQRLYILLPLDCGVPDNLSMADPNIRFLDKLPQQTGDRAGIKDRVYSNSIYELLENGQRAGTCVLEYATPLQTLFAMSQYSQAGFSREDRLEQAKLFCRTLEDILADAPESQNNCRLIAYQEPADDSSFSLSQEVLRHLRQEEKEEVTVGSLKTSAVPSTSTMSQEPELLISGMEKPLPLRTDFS
Nature of the experiment: Thermal shift assay with STING CTD. The class given is binding. The note with it: 0.1 mg/mL STING CTD, compound 2 mM to 0.05 uM. The protocol: Fluorescence as a function of temperature was recorded using a Real Time PCR machine (Thermo Fisher). The temperature gradient was performed in the range of 25-80° C. with a ramp of 0.2° C. over the course of 60 minutes. Data was analyzed with the Thermal Shift Software (Thermo Fisher) and DSF analysis. The Derivative model was used to fit the fluorescence data to obtain the midpoint temperature for the thermal protein unfolding transition (Tm) using the curve-fitting software Prism.

A further experiment addresses T3, wild type STING (Homo sapiens, UniProt Q86WV6, H232R).
T3 construct: expressed in transfected cells; host or cells: THP1-Dual-KI-STING-R232 (made from THP-Dual-STING KO cells)
The experiment can be described thus: IRF/NF-kB reporter cells, wild type STING. The experiment is classed as cell-based. The note with it: 20 hours. The protocol: as §1, §2, §3, §4

The next experiment relates to NF-κβ. The experiment can be described thus: In vitro induction of NF-κβ in THP1 dual cells (SEAP reporter). The class given is cell-based. The protocol:
(§5) Example 2. In Vitro Induction of IRF and NF-κβ in THP1 Cells
(§6) THP1 dual cells grown in complete media were treated with various concentrations of a compound of the present disclosure or DMSO control. Dual cells carry both secreted embryonic alkaline phosphatase (SEAP) reporter gene under the control of an IFN-β minimal promoter fused to five copies of the NF-kB consensus transcriptional response element to measure NF-kB activity and Lucia reporter gene under the control of an ISG54 minimal promoter to measure IRF activity. After 20 h incubation, IRF activity was assessed using QUANTI-luc to measure levels of Lucia and NF-kB activity was determined by measure SEAP levels at 620-655 nm. % induction was calculated from fold change in luminescence/absorbance compared to DMSO treated sample. […] EC50 values were generated by curve fit in Xlfit.
(§7) Cells grown in complete media were treated with various concentrations of a compound of the disclosure or DMSO control. Dual cells carry both secreted embryonic alkaline phosphatase (SEAP) reporter gene under the control of an IFN-β minimal promoter fused to five copies of the NF-kB consensus transcriptional response element to measure NF-kB activity and Lucia reporter gene under the control of an ISG54 minimal promoter to measure IRF activity. After 20 h incubation, IRF activity was assessed using QUANTI-luc to measure levels of Lucia and NF-kB activity was determined by measure SEAP levels at 620-655 nm. % induction was calculated from fold change in luminescence/absorbance compared to DMSO treated sample. EC50 values are generated by curve fit in Xlfit.

The test system of a further experiment is IRF. The experiment can be described thus: In vitro induction of IRF in THP1 dual cells (Lucia reporter, ISG54 promoter). The class given is cell-based. The method, then:
as §5, §6, §7

A further experiment relates to STING KO cells. The experiment can be described thus: IRF and NF-kB reporter activity in STING KO cells. The experiment is classed as cell-based. The note with it: 20 hours. The protocol:
FIG. 21 depicts cells stably expressing both or either one of the reporters to measure IRF and NF-kB activity were treated with a range of concentrations of compound 1 or DMSO control for 20 hours. IRF activity was assessed using QUANTI-luc to measure levels of Lucia and NF-kB activity was determined by measure SEAP levels at 620-655 nm. % induction was calculated from fold change in luminescence/absorbance compared to DMSO treated sample. EC50 values are generated by curve fit in Xlfit.
as §1, §2, §3, §7

Experiment [1] deals with T4, R71H-G230A-R293Q (HAQ) variant of hSTING (Homo sapiens, UniProt Q86WV6, G230A/H232R/R293Q/R71H).
T4 construct: THP1-Dual-WT cells express STING-HAQ variant; endogenous in cells; host or cells: THP1-Dual-WT cells
T4 sequence (Q86WV6 whole entry R71H/G230A/H232R/R293Q): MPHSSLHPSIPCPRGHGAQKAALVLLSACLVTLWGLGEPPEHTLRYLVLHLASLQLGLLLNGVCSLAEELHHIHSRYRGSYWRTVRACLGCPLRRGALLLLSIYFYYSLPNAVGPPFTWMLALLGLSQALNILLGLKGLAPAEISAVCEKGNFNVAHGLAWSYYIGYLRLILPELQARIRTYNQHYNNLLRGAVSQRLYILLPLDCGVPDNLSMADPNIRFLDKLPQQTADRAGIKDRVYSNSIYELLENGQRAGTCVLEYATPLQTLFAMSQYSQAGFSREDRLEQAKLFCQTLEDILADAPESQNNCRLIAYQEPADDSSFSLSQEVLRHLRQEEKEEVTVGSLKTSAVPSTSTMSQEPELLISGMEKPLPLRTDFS
Nature of the experiment: IRF/NF-kB reporter cells, STING HAQ variant. The class given is cell-based. The note with it: 20 hours. The method, then: as §1, §2, §3, §4

The test system of a further experiment is MYD88 knock out cells. The experiment can be described thus: IRF/NF-kB reporter activity in MYD88 knock out cells. The experiment is classed as cell-based. The note with it: 20 hours. The method, then: as §3, §7
The target in the next experiment is R232H variant of hSTING (Homo sapiens, UniProt Q86WV6). Nature of the experiment: IRF/NF-kB reporter cells, STING R232H variant. The class given is cell-based. The note with it: 20 hours. The method, then:
as §3, §7

Another experiment concerns NF-kB. The experiment can be described thus: NF-kB signaling reporter (SEAP), compound 4 and diastereomers. The note with it: FIG. 34B, 20 hours. The class given is cell-based. The protocol: Cells were treated with various concentrations of compound 4 and two of its diastereomers (4-A and 4-B), or DMSO control for 20 hours. Cells stably expressed one or both of the reporters used to measure NF-kB activity. NF-kB activity was determined by measure SEAP levels at 620-655 nm. % induction was calculated from fold change in luminescence/absorbance compared to DMSO treated sample.

Where [2] appears, read: Homo sapiens, THP-1, 20 h incubation.

T3 sequence (Q86WV6 whole entry H232R): as the sequence (Q86WV6 whole entry R71H/G230A/H232R/R293Q) above, with H71R, A230G, Q293R counted along it
Sequence of R232H variant of hSTING (Q86WV6 whole entry, stated change not applied): as the sequence (Q86WV6 whole entry R71H/G230A/H232R/R293Q) above, with H71R, A230G, R232H, Q293R counted along it

As for `N.N.Nc1ncnc2c1ncn2[C@@H]1O[C@@H]2COP(=O)(S)O[C@@H]3[C@H](F)[C@@H](COP(=O)(O)O[C@H]2[C@H]1F)O[C@H]3n1ccc(=O)[nH]c1=O` (stereo partly shown) [Compound 3], the “upregulation of ISGs/type I IFN response” value in the experiment with ISGs/type I IFN response was “strongly induced upregulation”. Further, on wt-mSTING, the “activity against wt-mSTING” value was “possess activity”. For the same compound, the “binding to STING (thermal shift)” value at STING CTD is listed as “bind to STING with high affinity”. The “activity against wild type STING” value on wild type STING is “possess activity”. Further, in the experiment with NF-κβ (setting [2]), the EC50 was > 2000 nM. Moreover, in the experiment with IRF (setting [2]), the EC50 is < 50 nM. Also, in the experiment with STING KO cells, the “IRF activity in STING KO cells” value was “did not induce” and the “NF-κβ in STING KO cells” value is on record as “did not induce”. The “activity against R71H-G230A-R293Q (HAQ) variant of hSTING” value in experiment [1] is reported as “possess activity”.

For the compound `CCCCCCCCCCOc1ccc(C(=O)Oc2ccc(CSP3(=O)OC[C@H]4O[C@@H](n5cnc6c(N)ncnc65)[C@H](F)[C@@H]4OP(=O)(O)OC[C@H]4O[C@@H](n5ccc(=O)[nH]c5=O)[C@H](O3)[C@@H]4F)cc2)cc1` (stereo partly shown) [Compound 4], the “activity in MYD88 knock out cells” value with MYD88 knock out cells is reported as “possess activity”. Moreover, the “activity against wt-mSTING” value on wt-mSTING is recorded as “possess activity”. The “activity against R232H variant of hSTING” value on R232H variant of hSTING was “possess activity”. The “activity against wild type STING” value on wild type STING was “possess activity”. Besides, the EC50 in the experiment on NF-κβ (20 h incubation) was < 50 nM. In addition, the EC50 in the experiment on IRF (20 h incubation) was < 50 nM. The NF-kB signaling induction result in the experiment on NF-kB is recorded as “efficacious in inducing NF-kB signaling”. In the experiment with STING KO cells, the “IRF activity in STING KO cells” value was “did not induce” and the “NF-κβ in STING KO cells” value is given as “did not induce”. Also, the “activity against R71H-G230A-R293Q (HAQ) variant of hSTING” value in [1] is on record as “possess activity”.
